Measurements as given in PubChem BioAssay AID258 (DTP/NCI, 2004).
Values joined by “and” are separate entries in the source; they are usually repeats but may differ in a detail not shown here. Equal values may be shown once. Inconclusive results and toxic doses are left out.

System: CD2F1 mice, L1210 leukemia sc, survival T/C
Assay: NCI In Vivo Anticancer Drug Screen. Data for tumor model L1210 Leukemia (subcutaneous) in CD2F1 (CDF1) mice
Settings: endpoint: median survival time, higher = longer survival
Procedure: The antitumor activity of compounds was measured in mice bearing transplantable tumors. Survival or tumor size were measured and the results are expressed as the measurement made in the treated group (T) divided by the measurement made in the vehicle treated control group (C). The tumor model used in this assay is L1210 Leukemia (subcutaneous) in CD2F1 (CDF1) mice

## O=NN(CCCl)C(=O)NC1CCCCC1
dose: 0.5 mg/kg/injection, schedule: Q01DX009 (ip), vehicle: saline + alcohol
  T/C: 98 % of control
dose: 0.5 mg/kg/injection, schedule: Q01DX009 (sc), vehicle: saline + alcohol
  T/C: 101 % of control and 106 % of control
dose: 1.0 mg/kg/injection, schedule: Q01DX009 (ip), vehicle: saline + alcohol
  T/C: 101 % of control
dose: 1.0 mg/kg/injection, schedule: Q01DX009 (sc), vehicle: saline + alcohol
  T/C: 105 % of control and 114 % of control
dose: 2.0 mg/kg/injection, schedule: Q01DX009 (sc), vehicle: saline + alcohol
  T/C: 119 % of control
dose: 3.0 mg/kg/injection, schedule: Q01DX Z (iv), vehicle: carboxymethylcellulose (CMC)
  T/C: 105 % of control and 112 % of control
dose: 3.0 mg/kg/injection, schedule: Q01DX Z (oral), vehicle: carboxymethylcellulose (CMC)
  T/C: 162 % of control
dose: 3.0 mg/kg/injection, schedule: Q01DX Z (sc), vehicle: carboxymethylcellulose (CMC)
  T/C: 118 % of control
dose: 4.0 mg/kg/injection, schedule: Q01DX009 (ip), vehicle: saline + alcohol
  T/C: 178 % of control and 186 % of control
dose: 5.0 mg/kg/injection, schedule: Q01DX Z (ip), vehicle: carboxymethylcellulose (CMC)
  T/C: 177 % of control and 181 % of control
dose: 5.0 mg/kg/injection, schedule: Q01DX Z (iv), vehicle: carboxymethylcellulose (CMC)
  T/C: 294 % of control
dose: 5.0 mg/kg/injection, schedule: Q01DX Z (oral), vehicle: carboxymethylcellulose (CMC)
  T/C: 493 % of control
dose: 5.0 mg/kg/injection, schedule: Q01DX Z (sc), vehicle: carboxymethylcellulose (CMC)
  T/C: 112 % of control and 155 % of control and 287 % of control
dose: 5.36 mg/kg/injection, schedule: Q01DX009 (sc), vehicle: saline + alcohol
  T/C: 323 % of control
dose: 8.0 mg/kg/injection, schedule: Q01DX009 (ip), vehicle: saline + alcohol
  T/C: 234 % of control and 261 % of control
dose: 8.4 mg/kg/injection, schedule: Q01DX Z (ip), vehicle: carboxymethylcellulose (CMC)
  T/C: 381 % of control and 383 % of control
dose: 8.4 mg/kg/injection, schedule: Q01DX Z (iv), vehicle: carboxymethylcellulose (CMC)
  T/C: 225 % of control and 261 % of control
dose: 8.4 mg/kg/injection, schedule: Q01DX Z (oral), vehicle: carboxymethylcellulose (CMC)
  T/C: 412 % of control
dose: 8.4 mg/kg/injection, schedule: Q01DX Z (sc), vehicle: carboxymethylcellulose (CMC)
  T/C: 106 % of control and 237 % of control and 300 % of control
dose: 10.7 mg/kg/injection, schedule: Q01DX009 (ip), vehicle: saline + alcohol
  T/C: 337 % of control
dose: 10.7 mg/kg/injection, schedule: Q01DX009 (sc), vehicle: saline + alcohol
  T/C: 378 % of control
dose: 12.0 mg/kg/injection, schedule: Q01DX009 (sc), vehicle: saline + alcohol
  T/C: 325 % of control
dose: 14.0 mg/kg/injection, schedule: Q01DX Z (ip), vehicle: carboxymethylcellulose (CMC)
  T/C: 255 % of control and 387 % of control
dose: 14.0 mg/kg/injection, schedule: Q01DX Z (iv), vehicle: carboxymethylcellulose (CMC)
  T/C: 183 % of control and 381 % of control
dose: 14.0 mg/kg/injection, schedule: Q01DX Z (oral), vehicle: carboxymethylcellulose (CMC)
  T/C: 255 % of control and 300 % of control
dose: 14.0 mg/kg/injection, schedule: Q07DX Z (sc), vehicle: carboxymethylcellulose (CMC)
  T/C: 112 % of control
dose: 15.0 mg/kg/injection, schedule: Q01DX009 (ip), vehicle: Klucel (hydroxypropylcellulose) (HPC)
  T/C: 220 % of control
dose: 16.0 mg/kg/injection, schedule: Q01DX009 (ip), vehicle: saline + alcohol
  T/C: 306 % of control and 340 % of control
dose: 16.0 mg/kg/injection, schedule: Q01DX009 (sc), vehicle: saline + alcohol
  T/C: 271 % of control and 284 % of control and 348 % of control
dose: 23.0 mg/kg/injection, schedule: Q01DX Z (ip), vehicle: carboxymethylcellulose (CMC)
  T/C: 177 % of control and 268 % of control
dose: 23.0 mg/kg/injection, schedule: Q01DX Z (iv), vehicle: carboxymethylcellulose (CMC)
  T/C: 155 % of control and 368 % of control
dose: 23.0 mg/kg/injection, schedule: Q01DX Z (oral), vehicle: carboxymethylcellulose (CMC)
  T/C: 212 % of control and 222 % of control
dose: 23.0 mg/kg/injection, schedule: Q01DX Z (sc), vehicle: carboxymethylcellulose (CMC)
  T/C: 156 % of control and 211 % of control and 268 % of control
dose: 23.0 mg/kg/injection, schedule: Q07DX Z (sc), vehicle: carboxymethylcellulose (CMC)
  T/C: 118 % of control
dose: 24.0 mg/kg/injection, schedule: Q01DX009 (ip), vehicle: saline + alcohol
  T/C: 184 % of control
dose: 24.0 mg/kg/injection, schedule: Q01DX009 (sc), vehicle: saline + alcohol
  T/C: 219 % of control
dose: 30.0 mg/kg/injection, schedule: Q01DX009 (ip), vehicle: Klucel (hydroxypropylcellulose) (HPC)
  T/C: 275 % of control
dose: 32.0 mg/kg/injection, schedule: Q01DX009 (sc), vehicle: saline + alcohol
  T/C: 173 % of control
dose: 39.0 mg/kg/injection, schedule: Q01DX Z (oral), vehicle: carboxymethylcellulose (CMC)
  T/C: 161 % of control
dose: 39.0 mg/kg/injection, schedule: Q01DX Z (sc), vehicle: carboxymethylcellulose (CMC)
  T/C: 312 % of control
dose: 64.0 mg/kg/injection, schedule: Q01DX009 (ip), vehicle: saline + alcohol
  T/C: 95 % of control
dose: 64.0 mg/kg/injection, schedule: Q01DX009 (sc), vehicle: saline + alcohol
  T/C: 107 % of control and 120 % of control
dose: 65.0 mg/kg/injection, schedule: Q01DX001 (sc), vehicle: carboxymethylcellulose (CMC)
  T/C: 200 % of control
dose: 65.0 mg/kg/injection, schedule: Q01DX Z (sc), vehicle: carboxymethylcellulose (CMC)
  T/C: 237 % of control
dose: 65.0 mg/kg/injection, schedule: Q07DX Z (sc), vehicle: carboxymethylcellulose (CMC)
  T/C: 475 % of control
dose: 108.0 mg/kg/injection, schedule: Q01DX001 (sc), vehicle: carboxymethylcellulose (CMC)
  T/C: 193 % of control
dose: 108.0 mg/kg/injection, schedule: Q01DX Z (oral), vehicle: carboxymethylcellulose (CMC)
  T/C: 122 % of control
dose: 108.0 mg/kg/injection, schedule: Q07DX Z (sc), vehicle: carboxymethylcellulose (CMC)
  T/C: 250 % of control
dose: 180.0 mg/kg/injection, schedule: Q01DX001 (sc), vehicle: carboxymethylcellulose (CMC)
  T/C: 362 % of control
dose: 180.0 mg/kg/injection, schedule: Q01DX Z (oral), vehicle: carboxymethylcellulose (CMC)
  T/C: 116 % of control
dose: 180.0 mg/kg/injection, schedule: Q07DX Z (sc), vehicle: carboxymethylcellulose (CMC)
  T/C: 193 % of control
dose: 300.0 mg/kg/injection, schedule: Q01DX001 (sc), vehicle: carboxymethylcellulose (CMC)
  T/C: 243 % of control

## OC(CBr)C(O)C(O)C(O)CBr (stereo unspecified)
dose: 40.0 mg/kg/injection, schedule: Q01DX009 (ip), vehicle: saline
  T/C: 103 % of control
dose: 40.0 mg/kg/injection, schedule: Q01DX009 (sc), vehicle: saline + alcohol
  T/C: 105 % of control
dose: 40.0 mg/kg/injection, schedule: Q01DX009 (sc), vehicle: saline with Tween-80
  T/C: 103 % of control
dose: 80.0 mg/kg/injection, schedule: Q01DX009 (ip), vehicle: saline
  T/C: 113 % of control
dose: 80.0 mg/kg/injection, schedule: Q01DX009 (sc), vehicle: saline + alcohol
  T/C: 116 % of control
dose: 100.0 mg/kg/injection, schedule: Q01DX009 (ip), vehicle: saline with Tween-80
  T/C: 100 % of control
dose: 100.0 mg/kg/injection, schedule: Q01DX009 (sc), vehicle: saline with Tween-80
  T/C: 103 % of control
dose: 108.0 mg/kg/injection, schedule: Q01DX Z (sc), vehicle: carboxymethylcellulose (CMC)
  T/C: 100 % of control
dose: 160.0 mg/kg/injection, schedule: Q01DX009 (sc), vehicle: saline + alcohol
  T/C: 121 % of control
dose: 160.0 mg/kg/injection, schedule: Q01DX009 (sc), vehicle: saline with Tween-80
  T/C: 103 % of control
dose: 200.0 mg/kg/injection, schedule: Q01DX009 (ip), vehicle: saline with Tween-80
  T/C: 103 % of control
dose: 200.0 mg/kg/injection, schedule: Q01DX009 (sc), vehicle: saline with Tween-80
  T/C: 102 % of control
dose: 240.0 mg/kg/injection, schedule: Q01DX009 (ip), vehicle: saline with Tween-80
  T/C: 124 % of control
dose: 300.0 mg/kg/injection, schedule: Q01DX Z (sc), vehicle: carboxymethylcellulose (CMC)
  T/C: 100 % of control
dose: 320.0 mg/kg/injection, schedule: Q01DX009 (sc), vehicle: saline with Tween-80
  T/C: 109 % of control
dose: 400.0 mg/kg/injection, schedule: Q01DX009 (ip), vehicle: saline with Tween-80
  T/C: 103 % of control
dose: 400.0 mg/kg/injection, schedule: Q01DX009 (sc), vehicle: saline with Tween-80
  T/C: 110 % of control
dose: 480.0 mg/kg/injection, schedule: Q01DX009 (ip), vehicle: saline with Tween-80
  T/C: 88 % of control
dose: 500.0 mg/kg/injection, schedule: Q01DX Z (sc), vehicle: carboxymethylcellulose (CMC)
  T/C: 100 % of control
dose: 640.0 mg/kg/injection, schedule: Q01DX009 (ip), vehicle: saline with Tween-80
  T/C: 93 % of control
dose: 640.0 mg/kg/injection, schedule: Q01DX009 (sc), vehicle: saline with Tween-80
  T/C: 104 % of control
dose: 800.0 mg/kg/injection, schedule: Q01DX009 (ip), vehicle: saline with Tween-80
  T/C: 98 % of control
dose: 800.0 mg/kg/injection, schedule: Q01DX009 (sc), vehicle: saline with Tween-80
  T/C: 111 % of control
dose: 960.0 mg/kg/injection, schedule: Q01DX009 (ip), vehicle: saline with Tween-80
  T/C: 96 % of control
